Laboratory results as given in patent publication US20110046160A1, “Novel Class of Spiro Piperidines for the Treatment of Neurodegenerative Diseases” (Pfizer, Inc., priority 2008, published 2011).
pIC50: −log10 of the molar value.

Biological target: T1, soluble human BACE (Homo sapiens, UniProt P56817)
T1 construct: cells secreting human recombinant soluble BACE; made in house; concentrated conditioned medium, crude or purified
Test: Inhibition of BACE: beta-secretase cleavage of synthetic biotinylated APP substrate, ELISA readout
Type: biochemical
Conditions: 3 μM substrate, 0.05M sodium acetate (pH 4.5), 2% DMSO, 1 hour at 37° C., ELISA absorbance at 450 nm
Protocol: The substrate and test compounds are added to 384 well polypropylene plates. The reaction is initiated by the addition of soluble BACE enzyme to a final volume of 12.5 μL per well. […] Concentrated conditioned media from cells secreting human recombinant soluble BACE was titrated to provide a source of BACE enzyme. The cell media can be used as either a crude BACE prep or BACE can be purified using any number of techniques, including immobilized BACE inhibitor purification columns. The assay mixture is incubated for 1 hour at 37° C., and the reaction is quenched by the addition of an equal volume of 0.1M Tris, pH 8. Half of the quenched mix is incubated on clear streptavidin coated 384 well polystyrene plates for 1 hour. […] The readout, following assay development with TMB substrate and quenching with 0.09M sulfuric acid, is absorbance at 450 nm.

T1 sequence (P56817 46-457 limits assumed): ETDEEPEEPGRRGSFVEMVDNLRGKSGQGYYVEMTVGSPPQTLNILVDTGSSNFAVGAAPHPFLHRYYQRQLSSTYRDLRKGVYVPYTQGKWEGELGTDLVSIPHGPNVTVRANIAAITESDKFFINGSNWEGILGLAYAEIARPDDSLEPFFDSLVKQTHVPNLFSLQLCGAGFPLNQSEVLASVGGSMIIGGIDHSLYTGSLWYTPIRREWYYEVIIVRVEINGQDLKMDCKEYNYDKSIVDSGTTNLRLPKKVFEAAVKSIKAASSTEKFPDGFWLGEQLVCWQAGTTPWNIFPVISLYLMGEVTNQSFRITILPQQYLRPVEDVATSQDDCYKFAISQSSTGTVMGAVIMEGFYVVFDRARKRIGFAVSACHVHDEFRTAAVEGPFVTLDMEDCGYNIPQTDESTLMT

Compound	pIC50
CC(C)Oc1cccc(CN2CC[C@]3(CNS(=O)(=O)N3c3cccc(F)c3)C[C@@H]2C)n1 [Example 83, (5R,7S)-1-(3-fluorophenyl)-8-[(6-isopropoxypyridin-2-yl)methyl]-7-methyl-2-thia-1,3,8-triazaspiro[4.5]decane 2,2-dioxide]	3.99
Cc1ccncc1-c1cccc(CN2CC[C@]3(CNS(=O)(=O)N3c3cccc(F)c3)C[C@@H]2C)c1 [Example 17, (5R,7S)-1-(3-fluorophenyl)-7-methyl-8-[3-(4-methylpyridin-3-yl)benzyl]-2-thia-1,3,8-triazaspiro[4.5]decane 2,2-dioxide]	5.82
